Columns and labels:
[1] = system: IL-1 production in LPS-stimulated PBMCs; experiment: Inhibition of IL-1 production in LPS-stimulated PBMCs ("cell"); format: cell-based, human; conditions: Homo sapiens, PBMC
Protocol: (§1) Inhibitors were serially diluted in DMSO from a 20 mM stock. At least 6 serial dilutions were prepared. Then 4× inhibitor stocks were prepared by adding 4 μl of an inhibitor dilution to 1 ml of RPMI1640 medium/10% fetal bovine serum. The 4× inhibitor stocks contained inhibitor at concentrations of 80 μM, 32 μM, 12.8 μM, 5.12 μM, 2.048 μM, 0.819 μM, 0.328 μM, 0.131 μM, 0.052 μM, 0.021 μM etc. The 4× inhibitor stocks were pre-warmed at 37° C. until use.
(§2) Fresh human blood buffy cells were separated from other cells in a Vacutainer CPT from Becton & Dickinson (containing 4 ml blood and enough DPBS without Mg^2+/Ca^2+ to fill the tube) by centrifugation at 1500×g for 15 min. Peripheral blood mononuclear cells (PBMCs), located on top of the gradient in the Vacutainer, were removed and washed twice with RPMI1640 medium/10% fetal bovine serum. PBMCs were collected by centrifugation at 500×g for 10 min. The total cell number was determined using a Neubauer Cell Chamber and the cells were adjusted to a concentration of 4.8×10^6 cells/ml in cell culture medium (RPMI1640 supplemented with 10% fetal bovine serum).
(§3) We placed 100 μl of cell suspension or whole blood in each well of a 96-well cell culture plate. Then we added 50 μl of the 4× inhibitor stock to the cells. Finally, we added 50 μl of a lipopolysaccharide (LPS) working stock solution (16 ng/ml in cell culture medium) to give a final concentration of 4 ng/ml LPS in the assay. The total assay volume of the vehicle control was also adjusted to 200 μl by adding 50 μl cell culture medium. The PBMC cells or whole blood were then incubated overnight (for 12–15 hours) at 37° C./5% CO2 in a humidified atmosphere.
(§4) The next day the cells were mixed on a shaker for 3–5 minutes before centrifugation at 500×g for 5 minutes. Cell culture supernatants were harvested and analyzed by ELISA for levels of IL-1b (R & D Systems, Quantikine kits, #DBL50), TNF-α (BioSource, #KHC3012), IL-6 (Endogen, #EH2-IL6) and IL-8 (Endogen, #EH2-IL8) according to the instructions of the manufacturer. The ELISA data were used to generate dose-response curves from which IC50 values were derived.

[2] = system: TNF production in LPS-stimulated PBMCs; experiment: Inhibition of TNF production in LPS-stimulated PBMCs ("cell"); format: cell-based, human; conditions: Homo sapiens, PBMC
Protocol: as §1, §2, §3, §4

[3] = system: IL-1 production in whole blood; experiment: Inhibition of IL-1 production in LPS-stimulated whole blood ("WB"); format: cell-based, human; conditions: Homo sapiens
Protocol: as §1
(§5) Alternatively, whole blood containing an anti-coagulant was used directly in the assay.
as §3, §4

[4] = system: TNF production in whole blood; experiment: Inhibition of TNF production in LPS-stimulated whole blood ("WB"); format: cell-based, human; conditions: Homo sapiens
Protocol: as §1, §5, §3, §4

[5] = system: IL-6 production in whole blood; experiment: Inhibition of IL-6 production in LPS-stimulated whole blood ("WB"); format: cell-based, human; conditions: Homo sapiens
Protocol: as §1, §5, §3, §4

activated p38 = activated p38 (Homo sapiens, UniProt Q16539); experiment: Inhibition of phosphorylation of EGF receptor peptide ("kinase"); format: biochemical; conditions: inhibition of phosphorylation of EGF receptor peptide by activated p38
Protocol: This assay was carried out in the presence of 10 mM MgCl2, 25 mM β-glycerophosphate, 10% glycerol and 100 mM HEPES buffer at pH 7.6. […] The stock solution was aliquotted into vials. A fixed volume of DMSO or inhibitor in DMSO (final concentration of DMSO in reaction was 5%) was introduced to each vial, mixed and incubated for 15 minutes at room temperature. EGF receptor peptide, […], a phosphoryl acceptor in p38-catalyzed kinase reaction (1), was added to each vial to a final concentration of 200 μM. The kinase reaction was initiated with ATP (100 μM) and the vials were incubated at 30° C. After 30 minutes, the reactions were quenched with equal volume of 10% trifluoroacetic acid (TFA).
The phosphorylated peptide was quantified by HPLC analysis. Separation of phosphorylated peptide from the unphosphorylated peptide was achieved on a reverse phase column (Deltapak, 5 μm, C18 100D, part no. 011795) with a binary gradient of water and acteonitrile, each containing 0.1% TFA.

Sequence of activated p38 (Q16539 whole entry): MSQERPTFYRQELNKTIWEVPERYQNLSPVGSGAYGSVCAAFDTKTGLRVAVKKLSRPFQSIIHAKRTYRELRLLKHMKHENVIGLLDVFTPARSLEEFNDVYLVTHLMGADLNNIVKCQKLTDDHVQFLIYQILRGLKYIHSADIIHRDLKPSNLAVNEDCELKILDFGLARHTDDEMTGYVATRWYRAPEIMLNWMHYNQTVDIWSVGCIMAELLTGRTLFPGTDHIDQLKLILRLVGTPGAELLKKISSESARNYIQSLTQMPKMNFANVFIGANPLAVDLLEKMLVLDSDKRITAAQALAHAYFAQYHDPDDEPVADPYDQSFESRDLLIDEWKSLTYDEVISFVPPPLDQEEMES

Compound	IC50 [1] [nM]	IC50 [2] [nM]	IC50 [3] [nM]	IC50 [4] [nM]	IC50 [5] [nM]	IC50 (activated p38) [nM]
COC(=O)CCc1ccc(SC2=NN3CNC(=O)C(c4c(Cl)cccc4Cl)=C3C=C2)cc1 [Compound 120]	100 to 500	≥ 500	≥ 500	≥ 500	≥ 500	–
CC(C)c1ccccc1Sc1ccc2c(-c3c(Cl)cccc3Cl)c(=O)ncn2n1 [Compound 18]	≥ 500	≥ 500	–	–	–	≥ 1000
NC(=O)C(c1cccc(-c2ccc(Cl)cc2)n1)c1c(Cl)cccc1Cl (centres unmarked) [Compound 310]	≥ 500	≥ 500	–	–	–	100 to 1000
COc1ccccc1-c1cccc(C(C(N)=O)c2c(Cl)cccc2Cl)n1 (centres unmarked) [Compound 324]	100 to 500	≥ 500	–	–	–	100 to 1000
NC(=O)C(c1cccc(-c2cccc(Cl)c2)n1)c1c(Cl)cccc1Cl (centres unmarked) [Compound 320]	100 to 500	100 to 500	–	–	–	≤ 100
Cc1c(Sc2ccccc2)nn2cnc(=O)c(-c3c(Cl)cccc3Cl)c2c1C [Compound 13]	≥ 500	≥ 500	–	–	–	≥ 1000
NC(=O)c1ccccc1SC1=NN2CNC(=O)C(c3c(Cl)cccc3Cl)=C2C=C1 [Compound 105]	≥ 500	≥ 500	–	–	–	100 to 1000
COc1cc(Cl)c(C2=C3C=CC(Sc4ccc(F)cc4)=NN3CNC2=O)cc1OC [Compound 134]	100 to 500	≥ 500	–	–	–	≤ 100
NC(=O)C(c1cccc(-c2cccc(F)c2)n1)c1c(Cl)cccc1Cl (centres unmarked) [Compound 323]	100 to 500	100 to 500	–	–	–	100 to 1000
Nc1ccc(-c2c(=O)ncn3nc(Sc4ccc(F)cc4)ccc23)c(Cl)c1 [Compound 46]	≥ 500	≥ 500	–	–	–	100 to 1000
Cc1cc(Cl)c(-c2c(=O)ncn3nc(Sc4ccc(F)cc4)ccc23)cc1C [Compound 44]	≥ 500	≥ 500	–	–	–	100 to 1000
NC(=O)C(c1cccc(-c2ccccc2CNCCO)n1)c1c(Cl)cccc1Cl (centres unmarked) [Compound 351]	≥ 500	≥ 500	–	–	–	≥ 1000
NC(=O)N(c1cccc(-c2ccc(Cl)cc2)n1)c1c(Cl)cccc1Cl [Compound 408]	≤ 100	100 to 500	–	–	–	≤ 100
O=c1ncn2nc(Sc3ccccc3)ccc2c1-c1c(F)cccc1C(F)(F)F [Compound 22]	≥ 500	≥ 500	–	–	–	≥ 1000
NC(=O)C(c1cccc(-c2cccs2)n1)c1c(Cl)cccc1Cl (centres unmarked) [Compound 317]	≥ 500	≥ 500	–	–	–	≥ 1000
NC(=O)C(c1cccc(-c2cccc(C(F)(F)F)c2)n1)c1c(F)cccc1Cl (centres unmarked) [Compound 353]	≥ 500	≥ 500	–	–	–	100 to 1000
NC(=O)C(c1cccc(-c2ccccc2CNc2ccccc2)n1)c1c(Cl)cccc1Cl (centres unmarked) [Compound 358]	≥ 500	≥ 500	–	–	–	100 to 1000
O=c1ncn2nc(Sc3ccccc3Br)ccc2c1-c1c(Cl)cccc1Cl [Compound 29]	100 to 500	100 to 500	–	–	–	100 to 1000
O=c1ncn2nc(Sc3ccccc3)ccc2c1-c1ccc(Cl)c(Cl)c1 [Compound 9]	≥ 500	≥ 500	–	–	–	≥ 1000
Cc1cccc(Sc2ccc3c(-c4c(Cl)cccc4Cl)c(=O)ncn3n2)c1 [Compound 15]	100 to 500	100 to 500	–	–	–	≥ 1000
O=c1ncn2nc(Sc3ccc(F)cc3)ccc2c1-c1cc2c(cc1Cl)OCO2 [Compound 39]	≥ 500	≥ 500	–	–	–	100 to 1000
Cc1cc(F)ccc1SC1=NN2CNC(=O)C(c3c(Cl)cccc3Cl)=C2C=C1 [Compound 131]	≤ 100	≤ 100	–	–	–	≤ 100

Compound	IC50 [1] [nM]	IC50 [2] [nM]	IC50 [3] [nM]	IC50 [4] [nM]	IC50 [5] [nM]	IC50 (activated p38) [nM]
O=C1NCN2C=C(Sc3ccc(F)cc3)C=CC2=C1c1c(Cl)cccc1Cl [Compound 111]	≥ 500	≥ 500	–	–	–	100 to 1000
COc1cccc(-c2cccc(C(C(N)=O)c3c(Cl)cccc3Cl)n2)c1 (centres unmarked) [Compound 322]	≥ 500	≥ 500	–	–	–	100 to 1000
O=c1ncn2nc(Sc3ccc(F)c(Cl)c3)ccc2c1-c1c(Cl)cccc1Cl [Compound 24]	100 to 500	100 to 500	≥ 500	≥ 500	–	100 to 1000
CCc1ccccc1Sc1ccc2c(-c3c(Cl)cccc3Cl)c(=O)ncn2n1 [Compound 20]	≥ 500	≥ 500	–	–	–	100 to 1000
NC(=O)Nc1cc(F)ccc1SC1=NN2CNC(=O)C(c3c(Cl)cccc3Cl)=C2C=C1 [Compound 128]	≥ 500	≥ 500	–	–	–	≥ 1000
Cc1nc(=O)c(-c2c(Cl)cccc2Cl)c2ccc(Sc3ccc(F)c(Cl)c3)nn12 [Compound 40]	100 to 500	≥ 500	–	–	–	100 to 1000
O=c1ncn2nc(Sc3ccc(F)cc3[N+](=O)[O-])ccc2c1-c1c(Cl)cccc1Cl [Compound 34]	≥ 500	≥ 500	–	–	–	≥ 1000
O=c1ncn2nc(Sc3cccc(F)c3)ccc2c1-c1c(Cl)cccc1Cl [Compound 21]	100 to 500	≥ 500	–	–	–	100 to 1000
COc1cc(Cl)c(-c2c(=O)ncn3nc(Sc4ccc(F)cc4)ccc23)cc1OC [Compound 43]	≥ 500	≥ 500	–	–	–	100 to 1000
CN(C)/C=N\c1ccc(-c2c(=O)ncn3nc(Sc4ccc(F)cc4Cl)ccc23)c(Cl)c1 [Compound 48]	100 to 500	≥ 500	–	–	–	100 to 1000
Cc1cc(Cl)ccc1Sc1ccc(C(C(N)=O)c2c(Cl)cccc2Cl)nn1 (centres unmarked) [Compound 206]	≥ 500	≥ 500	–	–	–	100 to 1000
O=C1NCN2C=C(Sc3ccccc3)C=CC2=C1c1c(Cl)cccc1Cl [Compound 110]	≥ 500	≥ 500	–	–	–	100 to 1000
Cc1cc(F)ccc1-c1cccc(C(C(N)=O)c2c(F)cccc2Cl)n1 (centres unmarked) [Compound 361]	100 to 500	≥ 500	–	–	–	100 to 1000
O=c1ncn2nc(Sc3ccccn3)ccc2c1-c1c(Cl)cccc1Cl [Compound 30]	≥ 500	≥ 500	≥ 500	–	–	≥ 1000
O=c1ncn2nc(Sc3ccccc3)ccc2c1-c1ccccc1Cl [Compound 7]	≥ 500	≥ 500	–	–	–	≥ 1000
COc1ccccc1-c1c(=O)ncn2nc(Sc3ccccc3)ccc12 [Compound 11]	≥ 500	≥ 500	–	–	–	≥ 1000
Cc1cc(Cl)ccc1Sc1ccc2c(-c3c(Cl)cccc3Cl)c(=O)ncn2n1 [Compound 28]	100 to 500	100 to 500	–	–	–	100 to 1000
Cc1ccccc1-c1cccc(N(C(N)=O)c2c(C)cccc2C)n1 [Compound 405]	≤ 100	100 to 500	–	–	–	≤ 100
Cc1cccc(C)c1N(C(N)=O)c1cccc(-c2ccc(F)cc2)n1 [Compound 407]	100 to 500	≥ 500	–	–	–	100 to 1000
O=c1ncn2nc(Sc3ccccc3)ccc2c1-c1c(F)cccc1F [Compound 17]	≥ 500	≥ 500	–	–	–	≥ 1000
O=C1NCN2N=C(Sc3ccccc3)C=CC2=C1c1c(F)cccc1F [Compound 130]	100 to 500	≥ 500	–	–	–	≤ 100
COc1ccc(-c2c(=O)ncn3nc(Sc4ccc(F)cc4)ccc23)c(Cl)c1 [Compound 47]	100 to 500	≥ 500	–	–	–	100 to 1000

— patent US7205305B2, “Inhibitors of p38” (Vertex Pharmaceuticals Incorporated, priority 1996, dated 2007)
